Measured values published in patent publication US10233173B2, “Substituted 1,2,3-triazoles as NR2B-selective NMDA modulators” (JANSSEN PHARMACEUTICA NV, priority 2016, dated 2019).

These compounds were tested against human GluN1/GluN2B NMDA receptors (Homo sapiens, UniProt Q05586+Q13224) (assay: Cell-based calcium flux (FLIPR) assay on cloned human NR1/NR2B ion channels expressed in mammalian cells). Conditions: standard assay; glutamate at ~EC80; FLIPR calcium flux.
human GluN1/GluN2B NMDA receptors, sequence (Q13224 27-1484, other chains not shown): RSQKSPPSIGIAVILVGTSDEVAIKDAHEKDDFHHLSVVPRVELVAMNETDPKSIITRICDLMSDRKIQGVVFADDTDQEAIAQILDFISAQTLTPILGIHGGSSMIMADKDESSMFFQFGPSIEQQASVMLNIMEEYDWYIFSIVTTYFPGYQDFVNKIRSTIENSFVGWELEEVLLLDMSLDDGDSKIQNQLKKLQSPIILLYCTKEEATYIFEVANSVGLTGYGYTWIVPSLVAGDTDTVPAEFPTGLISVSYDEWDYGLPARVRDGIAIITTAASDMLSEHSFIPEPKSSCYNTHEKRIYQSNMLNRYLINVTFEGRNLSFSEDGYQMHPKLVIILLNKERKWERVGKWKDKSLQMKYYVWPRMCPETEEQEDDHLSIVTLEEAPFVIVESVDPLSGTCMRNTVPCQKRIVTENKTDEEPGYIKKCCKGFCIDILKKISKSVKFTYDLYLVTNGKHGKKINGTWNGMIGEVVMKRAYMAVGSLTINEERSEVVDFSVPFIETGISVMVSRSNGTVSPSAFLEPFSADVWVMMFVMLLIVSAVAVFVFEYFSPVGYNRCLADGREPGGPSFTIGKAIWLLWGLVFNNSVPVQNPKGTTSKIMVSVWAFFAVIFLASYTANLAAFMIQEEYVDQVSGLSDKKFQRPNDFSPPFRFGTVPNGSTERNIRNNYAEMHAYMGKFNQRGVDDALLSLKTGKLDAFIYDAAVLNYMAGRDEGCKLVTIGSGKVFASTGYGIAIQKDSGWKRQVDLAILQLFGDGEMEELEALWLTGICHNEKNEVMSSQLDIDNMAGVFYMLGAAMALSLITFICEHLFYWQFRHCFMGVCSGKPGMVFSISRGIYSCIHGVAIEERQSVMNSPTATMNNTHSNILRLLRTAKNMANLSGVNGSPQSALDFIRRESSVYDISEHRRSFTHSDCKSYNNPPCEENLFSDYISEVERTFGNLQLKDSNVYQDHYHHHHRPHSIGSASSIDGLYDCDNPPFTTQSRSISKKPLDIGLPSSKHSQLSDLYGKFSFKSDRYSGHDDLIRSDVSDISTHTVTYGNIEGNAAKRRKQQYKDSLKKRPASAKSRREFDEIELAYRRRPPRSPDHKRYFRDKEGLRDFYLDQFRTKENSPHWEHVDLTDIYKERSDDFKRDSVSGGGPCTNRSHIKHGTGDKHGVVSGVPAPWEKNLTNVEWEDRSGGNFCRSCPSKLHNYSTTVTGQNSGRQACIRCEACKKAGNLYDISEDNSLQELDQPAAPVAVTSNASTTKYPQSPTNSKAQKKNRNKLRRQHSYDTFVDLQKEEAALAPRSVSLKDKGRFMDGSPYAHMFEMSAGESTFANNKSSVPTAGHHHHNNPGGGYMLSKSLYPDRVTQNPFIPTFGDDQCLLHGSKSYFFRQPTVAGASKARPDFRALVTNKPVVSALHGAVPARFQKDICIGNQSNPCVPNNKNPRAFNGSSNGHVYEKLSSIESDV
How it was run: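 Calcium influx followed by FLIPR fluorescence after 5 min compound exposure and a further 5 min co-agonist challenge: 10 μM glycine with glutamate at ~EC80 (standard) or EC40 (HTS).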
For `Fc1ccc(-n2cc(COc3ncc(C4CC4)cn3)nn2)cc1C(F)F` [Example 423, 5-Cyclopropyl-2-[[1-[3-(difluoromethyl)-4-fluoro-phenyl]triazol-4-yl]methoxy]pyrimidine], the IC50 was 0.005 µM. `Cc1cccc(-n2cc(COc3ncc(Cl)cn3)nn2)c1F` [Example 468, 5-Chloro-2-[[1-(2-fluoro-3-methyl-phenyl)triazol-4-yl]methoxy]pyrimidine] showed an IC50 of 1.25 µM. Compound `CNc1ccnc(OCc2cn(-c3ccc(F)c(C(F)F)c3)nn2)n1` [Example 413, 2-[[1-[3-(Difluoromethyl)-4-fluoro-phenyl]triazol-4-yl]methoxy]-N-methyl-pyrimidin-4-amine] has an IC50 of 0.015 µM. `Fc1cccc(-n2cc(COc3ncccn3)nn2)c1F` [Example 607, 2-[[1-(2,3-Difluorophenyl)triazol-4-yl]methoxy]pyrimidine] showed an IC50 of 3.43 µM. `Cc1ccc(OCc2cn(-c3ccc(F)c(C(C)(F)F)c3)nn2)nc1` [Example 558, 2-[[1-[3-(1,1-Difluoroethyl)-4-fluoro-phenyl]triazol-4-yl]methoxy]-5-methyl-pyridine] gave an IC50 of 0.125 µM. `Cc1cc(-n2cc(COc3ncc(F)c(C)n3)nn2)ccc1F` [Example 481, 5-Fluoro-2-[[1-(4-fluoro-3-methyl-phenyl)triazol-4-yl]methoxy]-4-methyl-pyrimidine] was tested, and the IC50 was 0.002 µM. Compound `COCc1ccnc(OCc2cn(-c3ccc(C)c(OC(F)F)c3)nn2)n1` [Example 527, 2-[[1-[3-(Difluoromethoxy)-4-methyl-phenyl]triazol-4-yl]methoxy]-4-(methoxymethyl)pyrimidine] has an IC50 of 0.132 µM. `Cc1cnc(OCc2cn(-c3ccc(Cl)c(C(C)(F)F)c3)nn2)nc1C` [Example 545, 2-[[1-[4-Chloro-3-(1,1-difluoroethyl)phenyl]triazol-4-yl]methoxy]-4,5-dimethyl-pyrimidine] was tested, and the IC50 was 0.006 µM. For `Cc1cnc(OCc2cn(-c3ccc(F)c(C(C)(F)F)c3)nn2)nc1N(C)C` [Example 579, 2-[[1-[3-(1,1-Difluoroethyl)-4-fluoro-phenyl]triazol-4-yl]methoxy]-N,N,5-trimethyl-pyrimidin-4-amine], the IC50 was 0.087 µM. Compound `Fc1ccc(-n2cc(COc3nccc(C(F)F)n3)nn2)cc1C(F)(F)F` [Example 440, 4-(Difluoromethyl)-2-[[1-[4-fluoro-3-(trifluoromethyl)phenyl]triazol-4-yl]methoxy]pyrimidine] has an IC50 of 0.098 µM. `Cc1cc(-n2cc(COc3ncc(C4CC4)cn3)nn2)c(F)cc1F` [Example 658, 5-Cyclopropyl-2-[[1-(2,4-difluoro-5-methyl-phenyl)triazol-4-yl]methoxy]pyrimidine] showed an IC50 of 0.424 µM. `Fc1ccc(-n2cc(COc3ncc(F)c(NCC(F)F)n3)nn2)cc1OC(F)F` [Example 517, N-(2,2-Difluoroethyl)-2-[[1-[3-(difluoromethoxy)-4-fluoro-phenyl]triazol-4-yl]methoxy]-5-fluoro-pyrimidin-4-amine] showed an IC50 of 0.912 µM. In the case of `Cc1cc(-n2cc(COc3ncc(Cl)c(C)n3)nn2)c(F)cc1F` [Example 657, 5-Chloro-2-[[1-(2,4-difluoro-5-methyl-phenyl)triazol-4-yl]methoxy]-4-methyl-pyrimidine], the IC50 is reported as 0.781 µM. `CCc1cnc(OCc2nnn(-c3ccc(F)c(C(C)(F)F)c3)c2C)nc1` [Example 593, 2-[[1-[3-(1,1-Difluoroethyl)-4-fluoro-phenyl]-5-methyl-triazol-4-yl]methoxy]-5-ethyl-pyrimidine] gave an IC50 of 0.486 µM.

Same assay, conditions: standard assay; human GluN1/GluN2B, calcium flux (FLIPR), glutamate ~EC80
`FC(F)c1cccc(-n2cc(COc3nccc(N4CCCC4)n3)nn2)c1` [Example 284, 2-[[1-[3-(Difluoromethyl)phenyl]triazol-4-yl]methoxy]-4-pyrrolidin-1-yl-pyrimidine] gave an IC50 of 0.094 µM. Work on `CC(C)(O)c1cnc(OCc2cn(-c3cccc(C(C)(F)F)c3)nn2)nc1` [Example 301, 2-[2-[[1-[3-(1,1-Difluoroethyl)phenyl]triazol-4-yl]methoxy]pyrimidin-5-yl]propan-2-ol] yielded an IC50 of 0.119 µM. In the case of `Cc1ccnc(OCc2cn(-c3ccc(F)c(Br)c3)nn2)n1` [Example 17, 2-[[1-(3-Bromo-4-fluoro-phenyl)triazol-4-yl]methoxy]-4-methylpyrimidine], the IC50 is reported as 0.01 µM. For `Fc1ccc(-n2cc(CNc3ncccn3)nn2)cc1C(F)F` [Example 24, N-[[1-[3-(Difluoromethyl)-4-fluoro-phenyl]triazol-4-yl]methyl]pyrimidin-2-amine], the IC50 was 0.824 µM. With `FC(F)c1cc(-n2cc(COc3ncccn3)nn2)ccc1N1CCC1` [Example 188, 2-((1-(4-(Azetidin-1-yl)-3-(difluoromethyl)phenyl)-1H-1,2,3-triazol-4-yl)methoxy)pyrimidine] the IC50 was 4.58 µM. `Cc1cnc(NCc2cn(-c3ccc(F)c(C(F)F)c3)nn2)nc1C` [Example 217, N-((1-(3-(Difluoromethyl)-4-fluorophenyl)-1H-1,2,3-triazol-4-yl)methyl)-4,5-dimethylpyrimidin-2-amine] was tested, and the IC50 was 0.012 µM. `Cc1cnc(OC(C)c2cn(-c3ccc(Cl)c(OC(F)F)c3)nn2)nc1` (racemic) [Example 56, (R/S)-2-[1-[1-[4-Chloro-3-(difluoromethoxy)phenyl]triazol-4-yl]ethoxy]-5-methyl-pyrimidine] gave an IC50 of 0.028 µM. Compound `Cc1cccc(-n2cc(COc3ncccn3)nn2)c1` [Example 242, 2-[[1-(m-Tolyl)triazol-4-yl]methoxy]pyrimidine] has an IC50 of 0.647 µM. `Cc1ccnc(OCc2cn(-c3cccc(C(F)F)c3)nn2)n1` [Example 268, 2-[[1-[3-(Difluoromethyl)phenyl]triazol-4-yl]methoxy]-4-methyl-pyrimidine] gave an IC50 of 0.134 µM. Work on `Cc1ccccc1-n1cc(COc2ncc(Cl)cn2)nn1` [Example 239, 5-Chloro-2-[[1-(o-tolyl)triazol-4-yl]methoxy]pyrimidine] yielded an IC50 of 4.8 µM. `CC(F)(F)c1cccc(-n2cc(COc3ncc(F)cn3)nn2)c1` [Example 295, 2-[[1-[3-(1,1-Difluoroethyl)phenyl]triazol-4-yl]methoxy]-5-fluoro-pyrimidine] showed an IC50 of 0.061 µM. Work on `FC1(F)Oc2ccc(-n3cc(COc4ncc(Cl)cn4)nn3)cc2O1` [Example 356, 5-Chloro-2-[[1-(2,2-difluoro-1,3-benzodioxol-5-yl)triazol-4-yl]methoxy]pyrimidine] yielded an IC50 of 0.185 µM. Compound `FC(F)Oc1cnc(OCc2cn(-c3ccc(Cl)c(OC(F)F)c3)nn2)nc1` [Example 35, 2-[[1-[4-Chloro-3-(difluoromethoxy)phenyl]triazol-4-yl]methoxy]-5-(difluoromethoxy)pyrimidine] has an IC50 of 0.006 µM. In the case of `Cc1nc(OCc2cn(-c3ccc4c(c3)CCC4)nn2)ncc1Cl` [Example 371, 5-Chloro-2-[(1-indan-5-yltriazol-4-yl)methoxy]-4-methyl-pyrimidine], the IC50 is reported as 0.039 µM. With `CC(=O)c1cnc(OCc2cn(-c3cccc(C(C)(F)F)c3)nn2)nc1` [Example 309, 1-[2-[[1-[3-(1,1-Difluoroethyl)phenyl]triazol-4-yl]methoxy]pyrimidin-5-yl]ethanone] the IC50 was 0.01 µM. Work on `Cc1nc(OCc2cn(-c3cccc(C(F)F)c3)nn2)ncc1F` [Example 278, 2-[[1-[3-(Difluoromethyl)phenyl]triazol-4-yl]methoxy]-5-fluoro-4-methyl-pyrimidine] yielded an IC50 of 0.042 µM. In the case of `Cc1cnc(OCc2cn(-c3ccc(F)c(C)c3F)nn2)nc1` [Example 38, 2-[[1-(2,4-Difluoro-3-methyl-phenyl)triazol-4-yl]methoxy]-5-methyl-pyrimidine], the IC50 is reported as 0.027 µM.
